Data as given in ChEMBL document CHEMBL1201862, “PubChem BioAssay data set” (2004).
Where a name gives a salt, the structure may show the parent alone. Calls of active or inactive are those of the source.

Key:
[1] = biological target: T1, Sentrin-specific protease 8 (Homo sapiens, UniProt Q96LD8); assay type: functional
T1 sequence (Q96LD8 whole entry): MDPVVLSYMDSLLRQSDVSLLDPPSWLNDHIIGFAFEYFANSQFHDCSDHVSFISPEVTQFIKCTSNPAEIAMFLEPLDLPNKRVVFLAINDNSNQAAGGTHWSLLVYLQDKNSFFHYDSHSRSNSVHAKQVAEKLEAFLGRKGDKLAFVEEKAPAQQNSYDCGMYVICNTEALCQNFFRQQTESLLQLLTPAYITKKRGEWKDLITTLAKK

[2] = Trypanosoma cruzi growth suppression in host cells – NIH3T3 host cells, beta-gal luminescence, confirmation (AID 2044); assay type: functional, cell-based;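 note: intracellular parasites grown in NIH/3T3 mouse fibroblasts as host cells; luminescent beta-galactosidase reporter signal from transgenic T. cruzi replicating inside host cells; inhibitors lower the luminescence signal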
[3] = NIH3T3 cell viability loss – ATP luminescence, mouse fibroblasts, counter-screen, dose response (AID 2010); assay type: functional, cell-based;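 note: cells exposed to compound for about 90 hours before reading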
[4] = biological target: T1, Sentrin-specific protease 8; assay type: functional; remark: listed apart in the source
[5] = CellTiter-Glo luminescence survival assay, SW480 colon tumor line, concentration-response curve, half-maximal inhibitory concentration (AID 1117338); assay type: functional
[6] = cytotoxicity toward HCT116 cells – cell-based, CellTiter-Glo luminescence, IC50, dose response (AID 1117332); assay type: functional; conditions: HCT-116
[7] = Reduced DLD-1 viability, concentration-response, CellTiter-Glo luminescence (AID 1117352); assay type: functional
[8] = SNU-C1 cell viability reduction, dose response, CellTiter-Glo luminescence (AID 1117323); assay type: functional, cell-based
[9] = Potency on glucagon-like peptide 1 release, dose-response in NCI-H716 cell line, half maximal inhibitory concentration (AID 1117344); assay type: functional, cell-based
[10] = cytotoxicity toward HT-29 cells – cell-based, CellTiter-Glo luminescence, IC50, dose response (AID 1117330); assay type: functional
[11] = RKO cell viability reduction, dose response, CellTiter-Glo luminescence (AID 1117322); assay type: functional
[12] = glucagon-like peptide-1 release potency in STC-1, concentration-response, half-maximal inhibitory concentration in the STC-1 line (AID 1117345); assay type: functional, cell-based
[13] = cytotoxicity toward Colo320 cells – cell-based, CellTiter-Glo luminescence, IC50, dose response (AID 1117334); assay type: functional; conditions: COLO 320
[14] = HCT116 cell viability decrease, GSK3B pretreatment – CellTiter-Glo, IC50, dose response (AID 1117339); assay type: functional; conditions: HCT-116
[15] = viability loss in Vero cells – cytotoxicity control for Vif-APOBEC3G degradation inhibitor project, dose response (AID 1117358); assay type: functional; conditions: Vero
[16] = biological target: T2, Carboxy-terminal domain RNA polymerase II polypeptide A small phosphatase 1 (Homo sapiens, UniProt Q9GZU7); test: CTDSP1 inhibitors, concentration-response, biochemical, absorbance readout, ultra-high-throughput screen actives (AID 540297); assay type: functional
T2 sequence (Q9GZU7 whole entry): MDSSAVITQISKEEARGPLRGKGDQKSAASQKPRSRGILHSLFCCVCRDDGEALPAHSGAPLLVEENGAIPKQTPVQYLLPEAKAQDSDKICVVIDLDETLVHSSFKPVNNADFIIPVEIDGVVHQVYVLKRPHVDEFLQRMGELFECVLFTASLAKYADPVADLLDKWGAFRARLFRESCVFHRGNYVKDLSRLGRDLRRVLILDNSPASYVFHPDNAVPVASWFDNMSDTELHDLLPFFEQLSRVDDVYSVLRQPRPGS

[17] = biological target: DNA dC->dU-editing enzyme APOBEC-3G (Homo sapiens, UniProt Q9HC16); assay type: functional;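 note: Dose-response counterscreen measuring inhibition of APOBEC3G DNA deaminase activity, run while confirming APOBEC3A inhibitors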
Sequence of DNA dC->dU-editing enzyme APOBEC-3G (Q9HC16 whole entry): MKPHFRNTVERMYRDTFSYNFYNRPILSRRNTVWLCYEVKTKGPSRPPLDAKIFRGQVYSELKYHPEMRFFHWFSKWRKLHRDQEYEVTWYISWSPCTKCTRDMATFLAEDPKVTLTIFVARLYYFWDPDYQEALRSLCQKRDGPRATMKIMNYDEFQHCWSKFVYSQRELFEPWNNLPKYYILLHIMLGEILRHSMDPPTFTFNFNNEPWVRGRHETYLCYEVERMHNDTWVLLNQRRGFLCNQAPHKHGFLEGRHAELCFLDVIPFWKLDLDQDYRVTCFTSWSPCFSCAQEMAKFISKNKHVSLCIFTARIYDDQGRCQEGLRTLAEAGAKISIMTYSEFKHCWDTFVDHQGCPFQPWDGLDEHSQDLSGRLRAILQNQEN

Protein Tat = Protein Tat (Human immunodeficiency virus type 1 group M subtype B (isolate HXB2)(HIV-1), UniProt P04608); assay type: functional;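 note: tat binding to TAR RNA read out by fluorescence polarization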
Sequence of Protein Tat (P04608 whole entry): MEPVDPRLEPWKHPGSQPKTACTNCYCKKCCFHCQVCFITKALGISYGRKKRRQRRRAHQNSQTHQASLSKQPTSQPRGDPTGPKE

[18] = biological target: DNA dC->dU-editing enzyme APOBEC-3A (Homo sapiens, UniProt P31941); test: Dose Response confirmation of small molecule APOBEC3A DNA Deaminase Inhibitors via a fluorescence-based single-stranded DNA deaminase assay. [Related pubchem assays (depositor defined):AID493011, AID493024]; assay type: functional
Sequence of DNA dC->dU-editing enzyme APOBEC-3A (P31941 whole entry): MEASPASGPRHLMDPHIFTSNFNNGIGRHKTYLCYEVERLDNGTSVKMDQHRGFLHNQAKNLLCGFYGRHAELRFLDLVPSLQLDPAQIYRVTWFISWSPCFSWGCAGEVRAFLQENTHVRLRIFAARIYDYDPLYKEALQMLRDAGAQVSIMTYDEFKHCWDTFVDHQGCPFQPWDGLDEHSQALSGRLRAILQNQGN

[19] = growth inhibition of PfATP4-mutant resistant parasites – NITD609-resistant line, SYBR Green, dry powder, dose response (AID 1159571); assay type: functional, cell-based;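 note: parasites synchronized at ring stage by sorbitol before testing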
[20] = toxicity to human HepG2 hepatoma cells – cell-based, plate reader, dry powder samples, cytotoxicity control, dose response (AID 1159569); assay type: functional;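 note: inhibitor potency with signal falling toward the positive control level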
[21] = growth inhibition of yeast DHODH-expressing 3D7 parasites – SYBR Green, dry powder samples, dose response (AID 1159570); assay type: functional, cell-based;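 note: parasite growth measured after 72 hours of compound exposure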
[22] = Dd2 parasite growth inhibition in erythrocytes – SYBR Green, dry powder samples, set 9, dose response (AID 1159568); assay type: functional, cell-based
[23] = P. falciparum Dd2 growth inhibitors, dose response, SYBR Green, cherry-picked samples (AID 1159567); assay type: functional, cell-based
[24] = Dd2 malaria parasite growth inhibition potency – SYBR Green, dry powder samples, dose response (AID 1159566); assay type: functional, cell-based;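 note: potency for growth inhibition with lower SYBR green DNA signal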
[25] = viability loss in A549 lung cells – cell-based, 24 h, CellTiter-Glo luminescence, cherry-picks, cytotoxicity control, dose response (AID 1053115); assay type: functional; conditions: A549, 24 h
[26] = viability loss in THP-1 monocytes – THP-1 cells, cytotoxicity control for Vif-APOBEC3G degradation inhibitor project, dose response (AID 1117359); assay type: functional; conditions: THP-1
HT-1080 = test: HT1080 cell viability loss – fluorescence readout (AID 620); assay type: functional, cell-based; conditions: Homo sapiens
[27] = toxicity to human hepatoma HepG2 cells – cell-based, cherry-picked samples, cytotoxicity control, dose response (AID 1159577); assay type: functional

Q: Which results are given for `CN(C)CCN(C(=O)c1ccc(N2C(=O)CCC2=O)cc1)c1nc2cc3c(cc2s1)OCO3`?
A: IC50 [1]: 33.5 µM (active); EC50 [2]: < 0.1 µM (active); EC50 (cells): 0.102 µM (active); EC50 [3]: > 60 µM (not active); IC50 [4]: 24.4 µM (active)

Q: With `C[C@@H]1CN(CCCn2c3ccccc3c3ccccc32)C[C@H](C)N1` [RIMCAZOLE HYDROCHLORIDE] as the compound, how does the IC50 [5] read?
A: 2.35 µM (active)

Q: And the IC50 [6]?
A: 10.5 µM (inactive)

Q: What about the IC50 [7] of the same compound?
A: 9.8 µM (inactive)

Q: What about the IC50 [8] of the same compound?
A: 6.02 µM (inactive)

Q: What about the IC50 [9] of the same compound?
A: 6.37 µM (inactive)

Q: What about the IC50 [10] of the same compound?
A: 4.02 µM (active)

Q: What about the IC50 [11] of the same compound?
A: 2.18 µM (active)

Q: And the IC50 [12]?
A: > 40 µM (inactive)

Q: And the IC50 [13]?
A: 15.9 µM (inactive)

Q: What about the IC50 [14] of the same compound?
A: 3.85 µM (active)

Q: For `Cc1cc(Cl)c(S(=O)(=O)NCC2CCCO2)cc1OCC(=O)NC1CCCCC1` (configuration not stated), which CC50 [15] is on record?
A: > 40 µM (active)

Q: For `CCOC(=O)C1=C(COC(=O)/C=C/c2ccco2)NC(=O)NC1C` (configuration not stated), which IC50 [16] is on record?
A: 4.25 µM (active)

Q: What about the IC50 [17] of the same compound?
A: 28.4 µM (active)

Q: What about the IC50 (Protein Tat) of the same compound?
A: > 100 µM (active)

Q: And the IC50 [18]?
A: 15.9 µM (active)

Q: For `Cc1cccc(Nc2cc(Cl)nc(SCC(=O)O)n2)c1C` [PIRINIXIC ACID], which IC50 [5] is on record?
A: > 20 µM (inactive)

Q: And the IC50 [6]?
A: > 20 µM (inactive)

Q: What about the IC50 [7] of the same compound?
A: > 20 µM (inactive)

Q: And the IC50 [8]?
A: > 20 µM (inactive)

Q: And the IC50 [10]?
A: > 20 µM (inactive)

Q: What about the IC50 [11] of the same compound?
A: > 20 µM (inactive)

Q: And the IC50 [13]?
A: > 20 µM (inactive)

Q: And the IC50 [14]?
A: > 20 µM (inactive)

Q: Which AC50 [19] does the source give for `COc1ccc(C#Cc2ccc([C@@H]3[C@@H](CO)N4CCCCN(C(=O)Nc5cccc(F)c5)C[C@H]34)cc2)cc1` here?
A: 0.698 µM (active)

Q: And the AC50 [20]?
A: 7.51 µM (active)

Q: What about the AC50 [21] of the same compound?
A: 0.738 µM (active)

Q: And the AC50 [22]?
A: 1.35 µM (active)

Q: What about the AC50 [23] of the same compound?
A: 1.66 µM (active)

Q: And the AC50 [24]?
A: 0.083 µM (active)

Q: For `N#Cc1ccc(-c2ccc3c(c2)[C@H]2[C@H](CCN2C(=O)C2CCCCC2)[C@@H](CO)N3)cc1`, which AC50 [25] is on record?
A: 48.7 µM (active)

Q: Which EC50 [2] does the source give for `COc1cccc(/C=N/NC(N)=S)c1OCc1ccccc1Cl` here?
A: 1.18 µM (active)

Q: And the CC50 [26]?
A: > 40 µM (active)

Q: And the EC50 [3]?
A: > 30 µM (not active)

Q: Which EC50 (HT-1080) does the source give for `Cc1ccc(NC2=Nc3ccccc3CC2)cc1` here?
A: > 50 µM (not active)

Q: What does the source list for `COc1ccc(C#Cc2ccc([C@@H]3[C@H](CO)N4CCCCN(C(=O)Nc5ccccc5F)C[C@@H]34)cc2)cc1`?
A: AC50 [19]: 0.771 µM (active); AC50 [20]: 8.16 µM (active); AC50 [21]: 1.02 µM (active); AC50 [23]: 1.42 µM (active); AC50 [24]: 0.898 µM (active); AC50 [27]: 9.73 µM (active)

Q: Which IC50 [9] does the source give for `Cc1nnc2n1-c1sc(CCc3ccc(CC(C)C)cc3)cc1C(c1ccccc1Cl)=NC2C` (configuration not stated) [ISRAPAFANT] here?
A: 24.7 µM (inactive)

Q: And the IC50 [12]?
A: > 40 µM (inactive)
